Assay results from ChEMBL document CHEMBL2046341, “α-glucosidase inhibitors from Brickellia cavanillesii” (J Nat Prod, 2012).

Assays:
[1] = Inhibition of Saccharomyces cerevisiae alpha-glucosidase using p-nitrophenyl-alpha-D-glucopyranoside as substrate preincubated for 5 mins prior to substrate addition measured after 35 mins by spectrophotocolorimetric assay
[2] = Noncompetitive inhibition of Saccharomyces cerevisiae alpha-glucosidase using p-nitrophenyl-alpha-D-glucopyranoside as substrate by Lineweaver-Burk plot and Dixon plot analysis
[3] = Competitive inhibition of Saccharomyces cerevisiae alpha-glucosidase using p-nitrophenyl-alpha-D-glucopyranoside as substrate by Lineweaver-Burk plot and Dixon plot analysis
[4] = Mixed type inhibition of Saccharomyces cerevisiae alpha-glucosidase using p-nitrophenyl-alpha-D-glucopyranoside as substrate by Lineweaver-Burk plot and Dixon plot analysis

Row | SMILES | IC50 [1] [µM] | Ki [2] [µM] | Ki [3] [µM] | Ki [4] [µM]
1 | CC1(C)C=Cc2c(ccc(C(=O)CO)c2O)O1 | 420 | 130 | – | –
2 | C[C@H]1O[C@H](O[C@H]2[C@H](O)[C@@H](O)[C@@H](O[C@H]3[C@H](O)[C@@H](O)C(O)O[C@@H]3CO)O[C@@H]2CO)[C@H](O)[C@@H](O)[C@@H]1N[C@H]1C=C(CO)[C@@H](O)[C@H](O)[C@H]1O (stereo partly drawn) [ACARBOSE] | 340 | – | 260 | –
3 | C=C1C(=O)O[C@@H]2C[C@@H](C)/C=C\C(=O)[C@](C)(O)[C@H](OC(C)=O)[C@@H](OC(=O)/C(C)=C/C)[C@@H]12 [CALEIN C] | 280 | – | – | 410
4 | COc1cc(-c2oc3cc(O)cc(O)c3c(=O)c2O)ccc1O [ISORHAMNETIN] | 160 | – | – | 1910
